From patent publication US6982279B2, “Arylated furan- and thiophenecarboxamides, processes for their preparation, their use as medicaments, and pharmaceutical preparations comprising them” (Aventis Pharm Deutschland GmbH, priority 2000, dated 2006)

target: T1, Kv1.5 channels from humans (Homo sapiens, UniProt P22460); test: Kv1.5 currents in Xenopus oocytes, 2-microelectrode voltage clamp; format: cell-based; settings: human Kv1.5 expressed in Xenopus laevis oocytes; voltage jumps to 0 mV and 40 mV lasting 500 ms; room temperature; Hill equation
T1 construct: expressed in transfected cells; host or cells: Xenopus laevis oocytes injected with in vitro synthesized RNA
T1 sequence (P22460 whole entry): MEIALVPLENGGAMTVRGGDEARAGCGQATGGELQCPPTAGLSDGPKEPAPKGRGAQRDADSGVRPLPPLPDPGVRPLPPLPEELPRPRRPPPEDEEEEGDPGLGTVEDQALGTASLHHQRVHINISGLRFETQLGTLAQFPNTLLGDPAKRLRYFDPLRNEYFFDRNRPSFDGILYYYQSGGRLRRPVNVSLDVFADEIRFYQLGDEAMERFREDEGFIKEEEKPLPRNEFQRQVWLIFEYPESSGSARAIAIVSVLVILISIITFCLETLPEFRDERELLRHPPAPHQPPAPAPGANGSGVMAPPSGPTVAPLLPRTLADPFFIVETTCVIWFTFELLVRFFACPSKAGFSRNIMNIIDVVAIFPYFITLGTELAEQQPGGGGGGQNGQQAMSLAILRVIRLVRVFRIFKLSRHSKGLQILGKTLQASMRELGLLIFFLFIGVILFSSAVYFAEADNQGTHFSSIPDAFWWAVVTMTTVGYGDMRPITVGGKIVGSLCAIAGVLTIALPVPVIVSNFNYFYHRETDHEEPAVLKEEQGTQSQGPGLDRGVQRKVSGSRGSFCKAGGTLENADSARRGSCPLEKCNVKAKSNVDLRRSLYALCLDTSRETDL
Procedure: Kv1.5 channels from humans were expressed in Xenopus oocytes. To this end, oocytes from Xenopus laevis were first isolated and defolliculated. RNA coding for Kv1.5 synthesized in vitro was then injected into these oocytes. After a Kv1.5 protein expression for 1-7 days, Kv1.5 currents were measured on the oocytes using the 2-microelectrode voltage clamp technique. The Kv1.5 channels were in this case as a rule activated using voltage jumps to 0 mV and 40 mV lasting 500 ms. The bath was rinsed using a solution of the following composition: NaCl 96 mM, KCl 2 mM, CaCl2 1.8 mM, MgCl2 1 mM, HEPES 5 mM (titrated with NaOH to pH 7.4). These experiments were carried out at room temperature. The following were employed for data acquisition and analysis: Gene clamp amplifier (Axon Instruments, Foster City, USA) and MacLab D/A converter and software (ADInstruments, Castle Hill, Australia). The substances according to the invention were tested by adding them to the bath solution in different concentrations. The effects of the substances were calculated as the percentage inhibition of the Kv1.5 control current which was obtained when no substance was added to the solution. The data were then extrapolated using the Hill equation in order to determine the inhibition concentrations IC50 for the respective substances.

SMILES	IC50 [µM]
CC(C)CCNC(=O)c1sccc1-c1ccccc1CNC(=O)OC(C)(C)C [Example 1, tert-Butyl {2-[2-(3-methylbutylcarbamoyl)thiophen-3-yl]benzyl}carbamate]	4
CC(C)(C)OC(=O)NCc1ccccc1-c1ccsc1C(=O)NCc1ccc(F)cc1F [Example 2]	5
CC(C)(C)OC(=O)NCc1ccccc1-c1ccoc1C(=O)NCc1ccc(F)cc1F [Example 3]	9
CC(C)CCNC(=O)c1occc1-c1ccccc1CNC(=O)OC(C)(C)C [Example 4]	10
CC(C)(C)OC(=O)NCc1ccccc1-c1sccc1C(=O)NCc1ccc(F)cc1F [Example 5]	3.1
CC(C)CCNC(=O)c1ccsc1-c1ccccc1CNC(=O)OC(C)(C)C [Example 6]	< 100
CC(C)(C)OC(=O)NCc1ccccc1-c1occc1C(=O)NCc1ccc(F)cc1F [Example 7]	10
CC(C)CCNC(=O)c1ccoc1-c1ccccc1CNC(=O)OC(C)(C)C [Example 8]	5.2
CC(C)CCNC(=O)c1sccc1-c1ccccc1CNC(=O)OCc1ccccc1 [Example 11, Benzyl {2-[2-(3-methylbutylcarbamoyl)thiophen-3-yl]-benzyl}carbamate]	3
O=C(NCc1ccccc1-c1ccsc1C(=O)NCc1ccc(F)cc1F)OCc1ccccc1 [Example 12]	2
O=C(NCc1ccccc1-c1ccoc1C(=O)NCc1ccc(F)cc1F)OCc1ccccc1 [Example 14]	< 100
CC(C)CCNC(=O)c1ccsc1-c1ccccc1CNC(=O)OCc1ccccc1 [Example 15]	1.2
O=C(NCc1ccccc1-c1sccc1C(=O)NCc1ccc(F)cc1F)OCc1ccccc1 [Example 16]	1.9
CC(C)CCNC(=O)c1ccoc1-c1ccccc1CNC(=O)OCc1ccccc1 [Example 17]	2.2
O=C(NCc1ccccc1-c1occc1C(=O)NCc1ccc(F)cc1F)OCc1ccccc1 [Example 18]	5.2
O=C(NCc1ccccc1-c1ccc(C(=O)NCc2ccc(F)cc2F)o1)OCc1ccccc1 [Example 19]	< 100
COc1ccc(CC(=O)NCc2ccccc2-c2ccsc2C(=O)NCCC(C)C)cc1 [Example 22]	1.7
COc1ccc(CC(=O)NCc2ccccc2-c2occc2C(=O)NCCC(C)C)cc1 [Example 26]	3.9
COc1ccc(CC(=O)NCc2ccccc2-c2ccc(C(=O)NCCC(C)C)o2)cc1 [Example 28]	< 100
COc1ccc(CC(=O)NCc2ccccc2-c2ccc(C(=O)NCc3ccc(F)cc3F)o2)cc1 [Example 29]	4.2

The remaining lines, values ahead:

IC50 [µM]	SMILES
< 100	CC(C)(C)OC(=O)NCc1ccccc1-c1ccc(C(=O)NCc2ccc(F)cc2F)o1 [Example 9]
< 100	CC(C)CCNC(=O)c1ccc(-c2ccccc2CNC(=O)OC(C)(C)C)o1 [Example 10]
5.6	CC(C)CCNC(=O)c1occc1-c1ccccc1CNC(=O)OCc1ccccc1 [Example 13]
< 100	COc1ccc(CC(=O)NCc2ccccc2-c2ccoc2C(=O)NCCC(C)C)cc1 [Example 20]
3.9	COc1ccc(CC(=O)NCc2ccccc2-c2ccoc2C(=O)NCc2ccc(F)cc2F)cc1 [Example 21]
1.2	COc1ccc(CC(=O)NCc2ccccc2-c2ccsc2C(=O)NCc2ccc(F)cc2F)cc1 [Example 23]
2.2	COc1ccc(CC(=O)NCc2ccccc2-c2sccc2C(=O)NCCC(C)C)cc1 [Example 24]
1.5	COc1ccc(CC(=O)NCc2ccccc2-c2sccc2C(=O)NCc2ccc(F)cc2F)cc1 [Example 25]
6.6	COc1ccc(CC(=O)NCc2ccccc2-c2occc2C(=O)NCc2ccc(F)cc2F)cc1 [Example 27]
